Format in all cases: cell-based, human
In assay [1] the test system is STAT3 nuclear translocation. Kind of assay: Immunocytochemistry for STAT3 localization in U266 cells. The conditions noted are these: 50 μM, 60 minutes. As to the method:
U266 cells were incubated alone or with curcumin (50 μM) for 60 minutes and then analyzed for the distribution of STAT3 by immunocytochemistry (originial magnification, 200X).
FIGS. 6A-C show& the effect of cell permeable STAT3 inhibitor peptide (STAT3iP) on STAT3 phosphorylation and cell viability in U266 cells. […] Results are shown as mean (±s.d. indicated by error bar) of absorbance (570 nm) of triplicate cultures compared to the untreated control.
Curcumin-treated multiple myeloma cells were plated on a glass slide by centrifugation using a Cytospin 4 (Thermoshendon, Pittsburg, Pa.), air-dried for 1 h at room temperature, and fixed with cold acetone. After a brief washing in PBS, slides were blocked with 5% normal goat serum for 1 h and then incubated with rabbit polyclonal anti-human STAT3 antibody (dilution, 1:100). After overnight incubation, the slides were washed and then incubated with goat anti-rabbit IgG-Alexa 594 (1:100) for 1 h and counter-stained for nuclei with Hoechst (50 ng/ml) for 5 min. Stained slides were mounted with mounting medium (Sigma Co.) and analyzed under an epifluorescence microscope (Labophot-2, Nikon, Tokyo, Japan). Pictures were captured using Photometrics Coolsnap CF color camera (Nikon, Lewisville, Tex.) and MetaMorph version 4.6.5 software (Universal Imaging Corp., Downingtown, Pa.). […]

Another assay deals with STAT3 phosphorylation. Kind of assay: Constitutive STAT3 phosphorylation in MDA 1986LN cells (Western blot). The protocol:
TU167, MDA 1986LN, TU 686, MDA 686LN and JMAR cells (2×10^6 cells) were lysed and whole cell extracts (30 μg) were resolved on 7.5% SDS-PAGE, electrotransferred to a nitrocellulose membrane and probed for phosphorylated-STAT3 (p-STAT3) and total STAT3 proteins. […] MDA 1986LN cells (2×10^6 cells) were treated with curcumin (50 μM) for indicated durations or with indicated concentrations of curcumin for 1 h and levels of p-STAT3 (upper panels) and STAT3 (lower panels) were examined in whole cell extracts by Western blotting.
MDA 1986LN cells (2×10^6 cells) were treated with curcumin (50 μM) for the indicated durations (upper panels) or treated for 1 h and washed twice with PBS to remove curcumin before re-suspending in fresh medium. Cells were removed at indicated times and lysed to prepare the whole cell extract (lower panels). The whole cell extracts (30 μg) were resolved on 7.5% SDS-PAGE, electrotransferred to a nitrocellulose membrane, probed for the p-STAT3 (upper panels) and striped and reprobed for STAT3 (lower panels).
MDA 1986LN cells (2×10^6 cells) were treated with indicated concentrations of AG490 for 8 h and whole extracts prepared. These whole-cell extracts (30 μg) were resolved on 7.5% SDS-PAGE, electrotransferred to a nitrocellulose membrane, probed for p-STAT3 (upper panel), striped and reprobed for STAT3 (middle panel) and β-actin (lower panel). […] The cells were treated with AG490 (100 μM) for the indicated durations and whole cell extracts prepared and analyzed as mentioned earlier. FIG. 15C compares the effect of curcumin and AG490 on proliferation of MDA 1986LN cells by MTT assay.
Since STAT3 was constitutively phosphorylated in MDA 1986LN cells, the ability of curcumin to inhibit the constitutive STAT3 phosphorylation was examined. MDA 1986LN cells were treated either with curcumin (50 μM) for different durations or with different concentrations of curcumin for 1 h and the p-STAT3 levels and STAT3 levels were determined. Curcumin inhibited the constitutively active STAT3 in a time-(FIG. 11B) and a dose-(FIG. 11C) manner. This curcumin-induced inhibition could be observed as early as 30 min and with a concentration as low as 25 μM.
MDA 1986LN cells were treated with curcumin for indicated times or for 1 h and the cells were washed twice with PBS to remove curcumin. The cells were then cultured in media for various durations and the levels of phosphorylated STAT3 were determined. […] However, the STAT3 levels were unaffected by curcumin treatment.
The concentration and the exposure time for AG490 to inhibit STAT3 phosphorylation in MDA 1986LN cells were determined. These cells were incubated with either different concentrations of AG490 or with 100 μM of AG490 for different durations and the levels of p-STAT3 and STAT3 were assessed.
On the technique in general: Immunoblotting shows a protein as a band on a membrane.

A further assay deals with STAT1 phosphorylation. Nature of the assay: IFN-α-inducible STAT1 phosphorylation in U266 cells (Western blot). Conditions: 50 μM curcumin, IFN-α 10 ng/ml. The protocol:
U266 cells (2×10^6) were treated with the indicated concentrations of curcumin for 1 h, or treated with 50 μM curcumin for the indicated durations and levels of phosphorylated-STAT3 (upper panel) and STAT3 (lower panel) were examined in whole cell extracts by Western Blotting. […] U266 cells (2×10^6) were treated with 50 μM curcumin for indicated durations, and examined for phosphorylated and nonphosphorylated-STAT3, and STAT5. […] U266 cells (2×10^6) were preincubated with curcumin (50 μM) for indicated durations before treatment with IFN-α (10 ng/ml) for additional 30 min and then examined for phosphorylated and nonphosphorylated-STAT1.
For detection of STAT proteins, whole-cell extracts were prepared by lysing the curcumin-treated cells in lysis buffer (20 mM Tris, pH 7.4, 250 mM NaCl, 2 mM EDTA, pH 8.0, 0.1% Triton-X100, 0.01 mg/ml aprotinin, 0.005 mg/ml leupeptin, 0.4 mM PMSF, and 4 mM NaVO4). Lysates were then spun at 14000 rpm for 10 min to remove insoluble material, and resolved on a 7.5% gel. After electrophoresis, the proteins were electrotransferred to a nitrocellulose membrane, blocked with 5% nonfat milk, and probed with anti-STAT antibodies (1:1000) overnight at 4° C. The blot was washed, exposed to HRP-conjugated secondary antibodies for 1 h, and finally examined by chemiluminescence (ECL, Amersham Pharmacia Biotech. Arlington Heights, Ill.). […]

The text below walks through data of patent publication US20050049299A1, “Selective inhibitors of stat-3 activation and uses thereof” (priority 2003, published 2005).

Molecules are shown by their SMILES. Entries after “also recorded” stand apart in the source; their conditions may differ.

`COc1cc(/C=C/C(=O)CC(=O)/C=C/c2ccc(O)c(OC)c2)ccc1O` [curcumin, diferuloylmethane]: the “translocation of STAT3 to the nucleus” value in assay [1] is given as “prevented the translocation of the STAT3 to the nucleus”. Further, the “reversibility of inhibition of STAT3 phosphorylation” value in the assay with STAT3 phosphorylation (50 μM 1 h then washed) was “removal of curcumin resulted in gradual increase in phosphorylated STAT3”. Further, in the assay with STAT3 phosphorylation (50 μM curcumin), the “earliest time at which inhibition of constitutive STAT3 phosphorylation could be observed” value was 30 min. Besides, the “lowest concentration at which inhibition of constitutive STAT3 phosphorylation could be observed” value in the assay with STAT3 phosphorylation (1 h) amounted to 25 µM. Moreover, the “inhibition of constitutive STAT3 phosphorylation” value in the assay with STAT3 phosphorylation (curcumin 50 μM, 1 h) was “inhibited the STAT3 phosphorylation completely; also recorded: completely inhibit”. Moreover, the “overall expression / levels of STAT3 protein” value in the assay on STAT3 phosphorylation (curcumin treatment) is recorded as “did not alter the overall expression of STAT3 protein; also recorded: unaffected”. For the same compound, in the assay with STAT1 phosphorylation, the “IFN-α-induced STAT1 phosphorylation” value is given as “suppressed the phosphorylation in a time-dependent manner”.
